“And” between values parts separate entries of the source, which are not always exact repeats. Equal values may be shown once. Toxic doses and inconclusive results are not listed.

The test deals with P388 leukemia ip, CD2F1 mice, survival T/C. Kind of test: NCI In Vivo Anticancer Drug Screen. Data for tumor model P388 Leukemia (intraperitoneal) in CD2F1 (CDF1) mice. The following applies: endpoint: median survival time, higher = longer survival. The method in brief:
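Mice carrying the transplanted tumor received test compound or vehicle. Survival was recorded in each group, and the value is the treated-group measurement divided by that of the vehicle-treated control group.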

The mark [1] stands for this setting: dose: 50.0 mg/kg/injection, schedule: Q01DX009 (ip), vehicle: Klucel (hydroxypropylcellulose) (HPC).
Where [2] appears, read: dose: 100.0 mg/kg/injection, schedule: Q01DX009 (ip), vehicle: Klucel (hydroxypropylcellulose) (HPC).
[3] abbreviates: dose: 200.0 mg/kg/injection, schedule: Q01DX009 (ip), vehicle: Klucel (hydroxypropylcellulose) (HPC).
[4] abbreviates: dose: 60.0 mg/kg/injection, schedule: Q01DX005 (ip), vehicle: saline with Tween-80.
Setting [5] is: dose: 120.0 mg/kg/injection, schedule: Q01DX005 (ip), vehicle: saline with Tween-80.
Where [6] appears, read: dose: 240.0 mg/kg/injection, schedule: Q01DX005 (ip), vehicle: saline with Tween-80.
The mark [7] stands for this setting: dose: 50.0 mg/kg/injection, schedule: Q01DX005 (ip), vehicle: saline with Tween-80.
The mark [8] stands for this setting: dose: 100.0 mg/kg/injection, schedule: Q01DX005 (ip), vehicle: saline with Tween-80.
The mark [9] stands for this setting: dose: 12.5 mg/kg/injection, schedule: Q01DX009 (ip), vehicle: Klucel (hydroxypropylcellulose) (HPC).
Where [10] appears, read: dose: 25.0 mg/kg/injection, schedule: Q01DX009 (ip), vehicle: Klucel (hydroxypropylcellulose) (HPC).
Setting [11] is: dose: 50.0 mg/kg/injection, schedule: Q01DX005 (ip), vehicle: Klucel (hydroxypropylcellulose) (HPC).
Where [12] appears, read: dose: 100.0 mg/kg/injection, schedule: Q01DX005 (ip), vehicle: Klucel (hydroxypropylcellulose) (HPC).
[13] abbreviates: dose: 200.0 mg/kg/injection, schedule: Q01DX005 (ip), vehicle: Klucel (hydroxypropylcellulose) (HPC).
Setting [14] is: dose: 50.0 mg/kg/injection, schedule: Q01DX009 (ip), vehicle: saline with Tween-80.
Where [15] appears, read: dose: 100.0 mg/kg/injection, schedule: Q01DX009 (ip), vehicle: saline with Tween-80.

For the compound `NC(N)=NC(=O)c1ccccc1`, the T/C by setting is: (dose: 50.0 mg/kg/injection, schedule: Q01DX005 (ip), vehicle: saline) 100 % of control; (dose: 100.0 mg/kg/injection, schedule: Q01DX005 (ip), vehicle: saline) 100 % of control; (dose: 200.0 mg/kg/injection, schedule: Q01DX005 (ip), vehicle: saline) 100 % of control.
For the compound `O=C1c2cc(Cl)ccc2OC2CCON12` (stereo unspecified), the T/C is, setting by setting: under setting [1], 108 % of control; under setting [2], 110 % of control; under setting [3], 116 % of control.
As for `CN1C(=O)OC2OC(C)(c3ccc(S(=O)(=O)c4ccccc4)cc3)C(=O)CC21` (stereo unspecified), the T/C was 100 % of control under setting [4], 97 % of control under setting [5] and 90 % of control under setting [6].
As for `CC1(Cc2c(N)[nH]c(=S)[nH]c2=O)OCCO1`, the T/C under setting [7] is 105 % of control; the T/C under setting [8] is 110 % of control; the T/C (dose: 200.0 mg/kg/injection, schedule: Q01DX005 (ip), vehicle: saline with Tween-80) is 110 % of control.
As to `S=c1nc[nH]c2c1ncn2C1CCCC1`, the T/C by setting is: (dose: 100.0 mg/kg/injection, schedule: Q04DX003 (ip), vehicle: saline with Tween-80) 104 % of control; (dose: 200.0 mg/kg/injection, schedule: Q04DX003 (ip), vehicle: saline with Tween-80) 104 % of control; (dose: 400.0 mg/kg/injection, schedule: Q04DX003 (ip), vehicle: saline with Tween-80) 90 % of control.
For `Cc1cc(Cl)nc2c1ccn2C1OC(CO)C(O)C1O` (stereo unspecified), the T/C runs as follows: (dose: 32.0 mg/kg/injection, schedule: Q01DX001 (ip), vehicle: saline) 100 % of control; (dose: 64.0 mg/kg/injection, schedule: Q01DX001 (ip), vehicle: saline) 100 % of control; (dose: 128.0 mg/kg/injection, schedule: Q01DX001 (ip), vehicle: saline) 102 % of control.
Regarding `CC(=O)OCC1CC2COCC2CC1COC(C)=O` (stereo unspecified), the T/C is, setting by setting: under setting [4], 100 % of control; under setting [5], 108 % of control; under setting [6], 102 % of control.
As to `c1cnc2nsnc2c1`, the T/C runs as follows: under setting [9], 100 % of control; under setting [10], 97 % of control; under setting [1], 100 % of control and 106 % of control.
With `COc1ccc(CSCC(NC(=O)OC(C)(C)C)C(=O)O)cc1` (stereo unspecified), the T/C under setting [11] was 105 % of control, the T/C under setting [12] is 97 % of control and the T/C under setting [13] is 100 % of control.
Regarding `CN(C(=S)S(C)(=O)=O)c1ccccc1`, the T/C is, setting by setting: (dose: 3.12 mg/kg/injection, schedule: Q01DX009 (ip), vehicle: Klucel (hydroxypropylcellulose) (HPC)) 102 % of control; (dose: 6.25 mg/kg/injection, schedule: Q01DX009 (ip), vehicle: Klucel (hydroxypropylcellulose) (HPC)) 100 % of control; under setting [9], 86 % of control.
For the compound `CC1=CC(=C2C(=O)c3ccccc3C2=O)N(CCN2CCCCC2)C=C1`, the T/C reads like this: under setting [11], 93 % of control; under setting [12], 102 % of control; under setting [13], 93 % of control.
Regarding `CCOC(=O)c1c(C(=O)OCC)c2cccn2c2c1cnn2-c1ccccc1`, the T/C by setting is: under setting [4], 99 % of control; under setting [5], 93 % of control; under setting [6], 91 % of control.
Turning to `CN(C)CCCNc1ccc2ccc3c(NCCCN(C)C)ccc4ccc1c2c43`, the T/C is, setting by setting: under setting [9], 99 % of control; under setting [10], 102 % of control; under setting [1], 99 % of control and 112 % of control; under setting [2], 103 % of control.
`CCCCOCC(=O)O`: the T/C by setting is: (dose: 25.0 mg/kg/injection, schedule: Q01DX009 (ip), vehicle: saline) 94 % of control; (dose: 50.0 mg/kg/injection, schedule: Q01DX009 (ip), vehicle: saline) 97 % of control; (dose: 100.0 mg/kg/injection, schedule: Q01DX009 (ip), vehicle: saline) 93 % of control.
For the compound `COc1cccc2c1C(=O)c1c(O)c3c(c(O)c1C2=O)C[C@@](O)(/C(C)=N/NC(=O)c1ccc(S(N)(=O)=O)cc1)C[C@@H]3OC1CC(N)C(O)C(C)O1` (stereo partly specified), the T/C runs as follows: (dose: 0.78 mg/kg/injection, schedule: Q01DX009 (ip), vehicle: water) 150 % of control; (dose: 1.56 mg/kg/injection, schedule: Q01DX009 (ip), vehicle: water) 161 % of control; (dose: 3.13 mg/kg/injection, schedule: Q01DX009 (ip), vehicle: water) 154 % of control and 182 % of control; (dose: 4.7 mg/kg/injection, schedule: Q04DX003 (ip), vehicle: water) 105 % of control and 106 % of control; (dose: 6.25 mg/kg/injection, schedule: Q01DX009 (ip), vehicle: water) 178 % of control and 201 % of control; (dose: 12.5 mg/kg/injection, schedule: Q01DX001 (ip), vehicle: water) 161 % of control. For the same compound, the T/C is, setting by setting: (dose: 12.5 mg/kg/injection, schedule: Q01DX009 (ip), vehicle: water) 196 % of control and 214 % of control; (dose: 18.8 mg/kg/injection, schedule: Q04DX003 (ip), vehicle: water) 123 % of control; (dose: 25.0 mg/kg/injection, schedule: Q01DX001 (ip), vehicle: water) 188 % of control; (dose: 37.5 mg/kg/injection, schedule: Q04DX003 (ip), vehicle: water) 203 % of control; (dose: 75.0 mg/kg/injection, schedule: Q04DX003 (ip), vehicle: water) 122 % of control; (dose: 150.0 mg/kg/injection, schedule: Q04DX003 (ip), vehicle: water) 100 % of control and 93 % of control.
For `CCOC(=O)/C=C(/C)Nc1ccc2c(c1)OCO2`, the T/C was 103 % of control under setting [11], 110 % of control under setting [12] and 111 % of control under setting [13].
Consider `CSC(=S)N/N=C(/C)c1ccco1`, for which the T/C runs as follows: under setting [14], 105 % of control; under setting [15], 95 % of control.
Regarding `CC(=O)C[n+]1ccc(C)cc1Sc1ccccc1C`, the T/C reads like this: (dose: 25.0 mg/kg/injection, schedule: Q01DX005 (ip), vehicle: saline with Tween-80) 101 % of control and 103 % of control; under setting [7], 111 % of control and 113 % of control and 122 % of control; under setting [8], 118 % of control and 120 % of control.
Take `O=S(=O)(NCCSSCCNS(=O)(=O)c1cccc2cccnc12)c1cccc2cccnc12`: the T/C was 100 % of control under setting [1], 89 % of control under setting [2] and 91 % of control under setting [3].
With `CN1C(=O)C(CC(N)=O)NC1=S` (stereo unspecified), the T/C is, setting by setting: (dose: 60.0 mg/kg/injection, schedule: Q01DX005 (ip), vehicle: Klucel (hydroxypropylcellulose) (HPC)) 95 % of control; (dose: 120.0 mg/kg/injection, schedule: Q01DX005 (ip), vehicle: Klucel (hydroxypropylcellulose) (HPC)) 86 % of control; (dose: 240.0 mg/kg/injection, schedule: Q01DX005 (ip), vehicle: Klucel (hydroxypropylcellulose) (HPC)) 93 % of control.
Consider `CSC(SC)(SC)SC`, for which the T/C reads like this: under setting [14], 94 % of control; under setting [15], 109 % of control.

These data come from PubChem BioAssay AID330 (DTP/NCI, 2004).
